Entries after “also recorded” stand apart in the source; their conditions may differ.
Tests used:
[1] = system: Recessive dystrophic epidermolysis bullosa (RDEB) mice; details: four weeks, results published by Nyström et al.; cited from earlier work
galectin 3 = experiment: Western blot of whole protein lysates of mouse forepaws: galectin 3; format: in vivo; details: RDEB mouse forepaw lysates, four weeks treatment, relative to untreated RDEB mice
Source text: (§1) FIG. 7 depicts tenascin-C, thrombospondin-1, pSMAD2/3, galectin 3, and β-tubulin Western blots of whole protein lysates of mouse forepaws. Samples were obtained from age-matched wild-type mice, untreated recessive dystrophic epidermolysis bullosa (RDEB) mice, and RDEB mice treated with angiotensin (1-7) for four weeks.
(§2) FIG. 8 is a graph depicting the quantification of Western blot bands immunostained with antibodies directed against tenascin-C, thrombospondin-1, pSMAD2/3, and galectin 3. Samples consisted of whole protein lysates of mouse forepaws obtained from age-matched wild-type mice, untreated recessive dystrophic epidermolysis bullosa (RDEB) mice, and RDEB mice treated with angiotensin (1-7) for four weeks. Samples were normalized against β-tubulin. […] Each bar corresponds to a mean value, and error bars correspond to standard error of the mean (SEM).
(§3) Whole protein lysates from mouse forepaws were analyzed by Western blotting with antibodies directed against tenascin-C, thrombospondin-1, pSMAD2/3, galectin 3, and β-tubulin (FIG. 7). Thrombospondin 1 can activate transforming growth factor beta (TGFβ) signaling, which is associated with fibrosis. TGFβ signals through an intracellular SMAD pathway, and thus, phosphorylated-SMAD (e.g., pSMAD2/3) correlates with TGFβ-associated fibrosis. […] Western blotting results were quantified by densitometry and normalized against β-tubulin.

tenascin-C [2] = experiment: Tenascin-C immunostaining of mouse forepaw cryosections; format: in vivo; details: RDEB mice, four weeks treatment, relative to untreated RDEB controls; P<0.001
Source text: FIG. 3 depicts images of tenascin-C immunostained cryosections of mouse forepaws. The cryosections were obtained from age-matched wild-type mice, untreated recessive dystrophic epidermolysis bullosa (RDEB) mice, and RDEB mice treated with angiotensin (1-7) for four weeks. Each top panel corresponds to cryosections of the walking pads of a mouse, and each bottom panel corresponds to sections of toes. Tenascin-C is present at low abundance in uninjured skin, and it increases in fibrotic skin. […] Tenascin-C staining was observed primarily just below the dermal-epidermal junction in angiotensin (1-7) treated mice, which corresponds to the initial site of injury in RDEB mice. Cells were counterstained with 4′,6-diamidino-2-phenylindole (DAPI), and the scale bar corresponds to 200 μm.
FIG. 4 is a graph depicting the quantification of the fluorescence intensity of cryosection images of mouse forepaws immunostained with an anti-tenascin-C antibody. […]
Immunostaining was performed on cryosections of mouse forepaws of wild-type mice, untreated RDEB mice, and RDEB mice treated with angiotensin (1-7) for four weeks. […] Tenascin-C immunostaining was visualized using fluorescence microscopy (FIG. 3). Immunostaining was quantified with ImageJ software on images obtained with identical microscope settings and exposure time. […]

[3] = system: Recessive dystrophic epidermolysis bullosa (RDEB) mice; experiment: Blistering of forepaws of RDEB mice; format: in vivo, mouse; details: four weeks treatment, wild type controls lacked blistering
fibronectin = experiment: Fibronectin immunostaining of mouse forepaw cryosections; format: in vivo; details: RDEB mice, four weeks treatment, relative to untreated RDEB mice
Source text: (§4) FIG. 5 depicts images of α-SMA (top panel), fibronectin (middle panel), and CD11b (bottom panel) immunostained cryosections of mouse forepaws. The cryosections were obtained from age-matched wild-type mice, untreated recessive dystrophic epidermolysis bullosa (RDEB) mice, and RDEB mice treated with angiotensin (1-7) for four weeks. […] Cells were counterstained with 4′,6-diamidino-2-phenylindole (DAPI).
(§5) Cryosections of mouse forepaws were also immunostained for α-SMA (alpha smooth muscle actin), fibronectin, and CD11b. α-SMA is a myofibroblast cell marker, which correlates with fibrotic disease. Fibronectin correlates with dermal fibrosis. CD11b (integrin αM subunit) is a leukocyte marker, which is expressed by monocytes, granulocytes (e.g., neutrophils), macrophages, and natural killer cells.

[4] = system: Recessive dystrophic epidermolysis bullosa (RDEB) mice; experiment: Toe length and loss/fusion of digits in RDEB mice treated four weeks; format: in vivo, mouse
Experimental: FIGS. 1A-1B. Recessive dystrophic epidermolysis bullosa (RDEB) mice were treated with angiotensin (1-7) peptide for four weeks. FIG. 1A consists of images of the right forepaw of a RDEB mouse before and after treatment with angiotensin (1-7). […] FIG. 1B is a graph of the average toe length of RDEB mice treated with angiotensin (1-7) peptide for four weeks (“Tarix”) or a vehicle control (“Vehicle”) as a percentage of average toe length before treatment.
FIG. 2 is a graph of average toe length of recessive dystrophic epidermolysis bullosa (RDEB) mice treated with either angiotensin (1-7) peptide, losartan, or a vehicle control for four weeks as a percentage of average toe length before treatment.
Recessive dystrophic epidermolysis bullosa (RDEB) is caused by a mutation in the gene encoding type VII collagen. RDEB mice display marked fibrosis, which leads to deleterious phenotypes including the fibrosis-driven loss and fusion of digits over time (see, e.g., Nyström, A. et al., EMBO MOLECULAR MEDICINE 7(9):1211-28 (2015)).
RDEB mice were treated with angiotensin (1-7) for four weeks (nine mice) or left untreated (three mice). Three wild type mice served as controls.

pSMAD2/3 = experiment: Western blot of whole protein lysates of mouse forepaws: pSMAD2/3; format: in vivo; details: RDEB mouse forepaw lysates, four weeks treatment, relative to untreated RDEB mice
Source text: as §1, §2, §3

[5] = system: α-SMA positive myofibroblasts; experiment: α-SMA immunostaining of mouse forepaw cryosections; format: in vivo; details: RDEB mice, four weeks treatment, relative to untreated RDEB mice
Source text: as §4, §5

[6] = system: CD11b-positive inflammatory leukocytes; experiment: CD11b immunostaining of mouse forepaw cryosections, CD11b-positive cells counted with ImageJ; format: in vivo; details: RDEB mice, four weeks treatment
Source text: as §4
FIG. 6 is a graph depicting the quantification of CD11b-positive cells per mm^2 in images of immunostained cryosections of mouse forepaws. The cryosections were obtained from age-matched wild-type mice, untreated recessive dystrophic epidermolysis bullosa (RDEB) mice, and RDEB mice treated with angiotensin (1-7) for four weeks. CD11b stains neutrophils and macrophages. […] Each bar corresponds to a mean value, and error bars correspond to standard error of the mean (SEM).
Cryosections of mouse forepaws were also immunostained for α-SMA (alpha smooth muscle actin), fibronectin, and CD11b. α-SMA is a myofibroblast cell marker, which correlates with fibrotic disease. Fibronectin correlates with dermal fibrosis. […]
The number of CD11b-positive cells per mm^2 was quantified using ImageJ software. […] Identical thresholds were applied to all images, the images were converted to binary images, and all particles >10 pixles^2 were automatically counted.

thrombospondin-1 = experiment: Western blot of whole protein lysates of mouse forepaws: thrombospondin-1; format: in vivo; details: RDEB mouse forepaw lysates, four weeks treatment, relative to untreated RDEB mice
Source text: as §1, §2, §3

tenascin-C [7] = experiment: Western blot of whole protein lysates of mouse forepaws: tenascin-C; format: in vivo; details: RDEB mouse forepaw lysates, four weeks treatment, relative to untreated RDEB mice
Source text: as §1, §2, §3

CCCCc1nc(Cl)c(CO)n1Cc1ccc(-c2ccccc2-c2nn[nH]n2)cc1 [losartan]
average toe length as a percentage of average toe length before treatment (losartan) [1]: similar

Asp^1-Arg^2-Val^3-Tyr^4-Ile^5-His^6-Pro^7 [angiotensin (1-7)]
galectin-3 abundance, Western blot normalized against β-tubulin (galectin 3): reduced galectin-3 | tenascin-C immunostaining (fluorescence intensity) in forepaw dermis (tenascin-C [2]): significant (P<0.001) reduction in tenascin-C staining; also recorded: significantly lowered the amount of tenascin-C staining; also recorded: significant reduction in tenascin-C immunostaining | blistering of forepaws [3]: displayed blistering | dermal fibronectin immunostaining in forepaw (fibronectin): less fibronectin immunostaining; also recorded: reduced | average toe length as a percentage of average toe length before treatment ([4]; relative to vehicle-treated RDEB controls (results published by Nyström et al.)): significant reduction in the decrease in toe length; also recorded: protected against RDEB-associated decreases in toe length | fibrosis-driven loss and fusion of digits ([4]; right forepaw, four weeks treatment): reduced the expression of this deleterious phenotype; also recorded: protected against RDEB-associated decreases in toe length and fusion of digits | phosphorylated SMAD2/3 (pSMAD2/3) abundance, Western blot normalized against β-tubulin (pSMAD2/3): reduced abundance of phosphorylated SMAD2/3 | α-SMA positive cells (myofibroblasts) in forepaw [5]: fewer α-SMA positive cells; also recorded: reduced the number of α-SMA positive myofibroblasts | CD11b-positive cells in forepaw dermis ([6]; relative to untreated RDEB mice): fewer CD11b-positive cells; also recorded: reduced; also recorded: reduction in CD11b-positive cell density | number of CD11b-positive cells per mm^2 compared with wild type mice ([6]; versus age-matched wild type mice): about the same number of CD11b-positive cells per mm^2 as wild type mice | thrombospondin-1 abundance, Western blot normalized against β-tubulin (thrombospondin-1): reduced abundance of the TGFβ activator thrombospondin-1 | tenascin-C abundance, Western blot normalized against β-tubulin (tenascin-C [7]): reduced tenascin-C

Source: patent publication US10960045B2, “Methods and compositions for the treatment of epidermolysis bullosa” (Constant Therapeutics LLC, priority 2015, dated 2021)
